As a reminder, the IC50 is the concentration needed to halve the response being measured. What is called MIC is the lowest concentration found to suppress growth. A higher MIC goes with a less susceptible organism.

Values after ≈ are worked out from the molar mass of the structure shown.

The values that follow come from ChEMBL document CHEMBL3124777, “Synthesis and biological evaluation of thiazoline derivatives as new antimicrobial and anticancer agents” (Eur J Med Chem, 2014).

The subject of test [1] is C6. The experiment in a line: Cytotoxicity against rat C6 cells after 24 hrs by MTT assay. It is filed as functional, cell-based. The note with it: C6, 24 h.
The subject of test [2] is NIH3T3. The experiment in a line: Cytotoxicity against mouse NIH/3T3 cells after 24 hrs by MTT assay. It is filed as cell-based. The note with it: NIH3T3, 24 h. In general terms: Tetrazolium dyes change colour on reduction, which living cells bring about.
The subject of test [3] is C6. The experiment in a line: Cytotoxicity against rat C6 cells assessed as cell viability at 200 ug/ml after 24 hrs by MTT assay relative to control. It is filed as functional. The note with it: C6, 24 h, read-out: Activity.
Test [4] deals with C6. The experiment in a line: Cytotoxicity against rat C6 cells assessed as cell viability at 100 ug/ml after 24 hrs by MTT assay relative to control. It is filed as functional. The note with it: C6, 24 h, read-out: Activity.
Test [5] concerns C6. The experiment in a line: Cytotoxicity against rat C6 cells assessed as cell viability at 50 ug/ml after 24 hrs by MTT assay relative to control. It is filed as functional. The note with it: C6, 24 h, read-out: Activity.
Test [6] deals with C6. In words: Cytotoxicity against rat C6 cells assessed as cell viability at 25 ug/ml after 24 hrs by MTT assay relative to control. It is filed as functional. The note with it: C6, 24 h, read-out: Activity.
The test system of test [7] is C6. The experiment in a line: Cytotoxicity against rat C6 cells assessed as cell viability at 12 ug/ml after 24 hrs by MTT assay relative to control. It is filed as functional. The note with it: C6, 24 h, read-out: Activity.
Test [8] concerns C6. The experiment in a line: Cytotoxicity against rat C6 cells assessed as cell viability at 6 ug/ml after 24 hrs by MTT assay relative to control. The note with it: C6, 24 h, read-out: Activity. It is filed as functional.
Test [9] relates to Candida albicans. In words: Antimicrobial activity against Candida albicans ATCC 22019 after 18 to 24 hrs by microbroth dilution method. It is filed as functional. (Broth dilution looks for growth in wells or tubes with falling amounts of substance.)
In test [10] the test system is Fusarium culmorum. The experiment in a line: Antimicrobial activity against wild type Fusarium culmorum after 48 to 72 hrs by microbroth dilution method. It is filed as functional.
Test [11] has as its system Fusarium verticillioides. The experiment in a line: Antimicrobial activity against Fusarium moniliforme NRRL 1866 after 48 to 72 hrs by microbroth dilution method. It is filed as functional.
Test [12] relates to Fusarium solani. In words: Antimicrobial activity against Fusarium solani NRRL 13414 after 48 to 72 hrs by microbroth dilution method. It is filed as functional.
Test [13] has as its system Aspergillus ochraceus. In words: Antimicrobial activity against Aspergillus ochraceus NRRL 3174 after 48 to 72 hrs by microbroth dilution method. It is filed as functional.
For test [14], the system named is Trichoderma harzianum. In words: Antimicrobial activity against Trichoderma harzianum NRRL 20565 after 48 to 72 hrs by microbroth dilution method. It is filed as functional.
Test [15] relates to Penicillium chrysogenum. In words: Antimicrobial activity against Penicillium chrysogenum NRRL 1951 after 48 to 72 hrs by microbroth dilution method. It is filed as functional.
Test [16] has as its system Aspergillus parasiticus. In words: Antimicrobial activity against Aspergillus parasiticus NRRL 465 after 48 to 72 hrs by microbroth dilution method. It is filed as functional.
Test [17] has as its system Bacillus subtilis. The experiment in a line: Antimicrobial activity against Bacillus subtilis NRS-744 after 18 to 24 hrs by microbroth dilution method. It is filed as functional.
Test [18] relates to Micrococcus luteus. In words: Antimicrobial activity against Micrococcus luteus NRLL B-4375 after 18 to 24 hrs by microbroth dilution method. It is filed as functional.
The subject of test [19] is Pseudomonas aeruginosa. In words: Antimicrobial activity against Pseudomonas aeruginosa […] after 18 to 24 hrs by microbroth dilution method. It is filed as functional.
In test [20] the test system is Escherichia coli. In words: Antimicrobial activity against Escherichia coli ATCC 25922 after 18 to 24 hrs by microbroth dilution method. It is filed as functional.
Test [21] relates to Listeria monocytogenes. The experiment in a line: Antimicrobial activity against Listeria monocytogenes ATCC 7644 after 18 to 24 hrs by microbroth dilution method. It is filed as functional.
The subject of test [22] is Staphylococcus aureus. The experiment in a line: Antimicrobial activity against Staphylococcus aureus NRRL B-767 after 18 to 24 hrs by microbroth dilution method. It is filed as functional.

On to `O=C(CSc1ncccn1)N/N=c1/scc(-c2ccc(F)cc2)n1-c1ccccc1`, for which the IC50 is 110 µg/mL (≈ 251 µM) in [1] and more than 500 µg/mL in [2]. For the same molecule, in test [3], the viability at 200 µg/mL was found to be 32.2%. In test [4], the viability at 100 µg/mL turned out to be 53.4%. Also, the viability at 50 µg/mL in test [5] amounted to 55.5%. Further, the viability at 25 µg/mL in [6] turned out to be 63.9%. Moreover, the viability at 12 µg/mL in test [7] is 77.4%. Also, in [8], the viability at 6 µg/mL came to 84%. The MIC in [9], in test [10], in test [11], in [12], in [13] and in test [14] was 250 µg/mL (≈ 571 µM) each time. The MIC is 250 µg/mL (≈ 571 µM) in test [15]; 250 µg/mL (≈ 571 µM) in [16]; 500 µg/mL (≈ 1140 µM) in test [17]; 250 µg/mL (≈ 571 µM) in [18]; 250 µg/mL (≈ 571 µM) in test [19]; 250 µg/mL (≈ 571 µM) in [20]. Moreover, the MIC in test [21] is 250 µg/mL (≈ 571 µM); in [22] it was 500 µg/mL (≈ 1140 µM).
Take `Cn1nnnc1SCC(=O)N/N=c1/scc(-c2ccc([N+](=O)[O-])cc2)n1-c1ccccc1`: the half-maximal inhibitory concentration (IC50) in test [1] is more than 200 µg/mL; in test [2], 167 µg/mL (≈ 356 µM). Besides, the viability at 200 µg/mL in [3] is 58.6%. Moreover, in test [4], the viability at 100 µg/mL was determined as 64.1%. The viability at 50 µg/mL in test [5] came to 69.2%. For the same molecule, the viability at 25 µg/mL in test [6] amounted to 69.3%. Further, in test [7], the viability at 12 µg/mL was determined as 76.2%. The viability at 6 µg/mL in test [8] worked out at 80.4%. For the same molecule, the MIC was 250 µg/mL (≈ 534 µM) in test [9]; 250 µg/mL (≈ 534 µM) in test [10]; 250 µg/mL (≈ 534 µM) in test [11]; 250 µg/mL (≈ 534 µM) in test [12]; 250 µg/mL (≈ 534 µM) in [13]; 125 µg/mL (≈ 267 µM) in test [14]. Moreover, the MIC is 250 µg/mL (≈ 534 µM) in [15]; 250 µg/mL (≈ 534 µM) in [16]; 500 µg/mL (≈ 1070 µM) in [17]; 250 µg/mL (≈ 534 µM) in test [18]; 250 µg/mL (≈ 534 µM) in [19]; 250 µg/mL (≈ 534 µM) in test [20]. Moreover, the minimum inhibitory concentration (MIC) in [21] and in test [22] was 250 µg/mL (≈ 534 µM) throughout.
Consider `O=C(CSc1nnnn1-c1ccccc1)N/N=c1/scc(-c2ccc(Cl)cc2)n1-c1ccccc1`, for which the IC50 in test [1] is more than 200 µg/mL; in test [2], 313 µg/mL (≈ 602 µM). Moreover, the viability at 200 µg/mL in test [3] came out at 52.4%. For the same molecule, in [4], the viability at 100 µg/mL came out at 54.3%. The viability at 50 µg/mL in test [5] was found to be 60%. Moreover, the viability at 25 µg/mL in [6] was found to be 62.3%. Besides, the viability at 12 µg/mL in test [7] was 69.3%. In addition, in test [8], the viability at 6 µg/mL is 77.4%. The minimal inhibitory concentration (MIC) in [9] was found to be 250 µg/mL (≈ 481 µM); in test [10], 250 µg/mL (≈ 481 µM); in [11], 250 µg/mL (≈ 481 µM); in [12], 250 µg/mL (≈ 481 µM); in test [13] it was 250 µg/mL (≈ 481 µM); in test [14], 125 µg/mL (≈ 240 µM). Besides, the MIC worked out at 250 µg/mL (≈ 481 µM) in [15]; 250 µg/mL (≈ 481 µM) in test [16]; 250 µg/mL (≈ 481 µM) in test [17]; 125 µg/mL (≈ 240 µM) in test [18]; 125 µg/mL (≈ 240 µM) in [19]; 125 µg/mL (≈ 240 µM) in test [20]. Further, the minimum inhibitory concentration (MIC) in [21] and in test [22] was 250 µg/mL (≈ 481 µM) throughout.
`Cn1nnnc1SCC(=O)N/N=c1/scc(-c2ccccc2)n1-c1ccccc1`: the 50% inhibitory concentration (IC50) was 67.7 µg/mL (≈ 160 µM) in test [1] and 173 µg/mL (≈ 409 µM) in test [2]. Also, the viability at 200 µg/mL in test [3] came to 26.8%. The viability at 100 µg/mL in test [4] was 38.8%. Moreover, the viability at 50 µg/mL in test [5] was 56.2%. For the same molecule, in test [6], the viability at 25 µg/mL was found to be 64.2%. In test [7], the viability at 12 µg/mL amounted to 80.7%. For the same molecule, the viability at 6 µg/mL in test [8] was found to be 85.2%. Moreover, the MIC was 250 µg/mL (≈ 590 µM) in test [9]; 250 µg/mL (≈ 590 µM) in test [10]; 250 µg/mL (≈ 590 µM) in test [11]; 250 µg/mL (≈ 590 µM) in test [12]; 250 µg/mL (≈ 590 µM) in test [13]; 125 µg/mL (≈ 295 µM) in test [14]. For the same molecule, the minimum inhibitory concentration (MIC) in [15], in [16], in [17], in test [18], in test [19] and in test [20] was 250 µg/mL (≈ 590 µM) in each case. The MIC in [21] and in [22] was 250 µg/mL (≈ 590 µM) throughout.
